In patent publication US8114843B2, “Photoreactive regulator of protein function and methods of use thereof” (The Regents of the University of California, priority 2005, dated 2012):

Legend:
[1] = biological target: T1, Kv1.2 (Homo sapiens, UniProt P16389); assay: PAL photoswitching, whole-cell patch clamp in HEK cells; type: cell-based
T1 construct: expressed in transfected cells; host or cells: HEK cells
Method: (§1) Cell culture and transfection. HEK293 cells were grown in DMEM containing 5% fetal bovine serum, at 37° C., 7% CO2. For electrophysiology, cells were plated at 12×10^5 cells/cm^2 on poly-L-lysine coated coverslips and transfected using the calcium phosphate method. Recordings were performed 24-36 hours after transfection.
(§2) PAL attachment. HEK293 and hippocampal cells were rinsed in extracellular solution containing in mM: 138 NaCl, 1.5 KCl, 1.2 MgCl2, 2.5 CaCl2, 5 HEPES, 10 glucose and incubated at 37° C. in the dark with 200-250 μM PAL for 15 minutes. For slices, AAQ was diluted to 200 μM in aCSF and treatment was performed in the dark at room temperature for 10 minutes.
(§3) Electrophysiological recording. Recordings from HEK293 and hippocampal neurons were made in the whole-cell patch clamp configuration using a PC-501A amplifier (Warner Instruments). Pulse protocols and measurements were carried out with pCLAMP and a Digidata 1322 interface (Axon Instruments). For voltage-clamp experiment, cells were held at −70 mV. Data was recorded at 20 kHz and filtered at 2 kHz. Recording pipettes with 2.5-4 MΩ resistance were filled with intracellular solution containing in mM: 10 NaCl, 135 K-gluconate, 10 HEPES, 2 MgCl2, 2 MgATP, 1 EGTA, pH 7.4.
(§4) Illumination was provided using a xenon lamp (Sutter Instruments) with narrow band pass filters (380 BP10 for UV and 500 BP5 for visible light respectively). Excitation filters were changed using a lambda 10-2 filter changer (Sutter Instruments) controlled via pCLAMP software.
(§5) Percent photoswitching was defined as the difference between current in UV and visible light divided by current in UV. All data shown in bar graphs are averages±standard error of the mean.

[2] = biological target: T2, BKα channels (Homo sapiens, UniProt Q12791); assay: as above; type: cell-based; conditions: n=6
T2 construct: expressed in transfected cells; host or cells: HEK cells
T2 sequence (Q12791 whole entry): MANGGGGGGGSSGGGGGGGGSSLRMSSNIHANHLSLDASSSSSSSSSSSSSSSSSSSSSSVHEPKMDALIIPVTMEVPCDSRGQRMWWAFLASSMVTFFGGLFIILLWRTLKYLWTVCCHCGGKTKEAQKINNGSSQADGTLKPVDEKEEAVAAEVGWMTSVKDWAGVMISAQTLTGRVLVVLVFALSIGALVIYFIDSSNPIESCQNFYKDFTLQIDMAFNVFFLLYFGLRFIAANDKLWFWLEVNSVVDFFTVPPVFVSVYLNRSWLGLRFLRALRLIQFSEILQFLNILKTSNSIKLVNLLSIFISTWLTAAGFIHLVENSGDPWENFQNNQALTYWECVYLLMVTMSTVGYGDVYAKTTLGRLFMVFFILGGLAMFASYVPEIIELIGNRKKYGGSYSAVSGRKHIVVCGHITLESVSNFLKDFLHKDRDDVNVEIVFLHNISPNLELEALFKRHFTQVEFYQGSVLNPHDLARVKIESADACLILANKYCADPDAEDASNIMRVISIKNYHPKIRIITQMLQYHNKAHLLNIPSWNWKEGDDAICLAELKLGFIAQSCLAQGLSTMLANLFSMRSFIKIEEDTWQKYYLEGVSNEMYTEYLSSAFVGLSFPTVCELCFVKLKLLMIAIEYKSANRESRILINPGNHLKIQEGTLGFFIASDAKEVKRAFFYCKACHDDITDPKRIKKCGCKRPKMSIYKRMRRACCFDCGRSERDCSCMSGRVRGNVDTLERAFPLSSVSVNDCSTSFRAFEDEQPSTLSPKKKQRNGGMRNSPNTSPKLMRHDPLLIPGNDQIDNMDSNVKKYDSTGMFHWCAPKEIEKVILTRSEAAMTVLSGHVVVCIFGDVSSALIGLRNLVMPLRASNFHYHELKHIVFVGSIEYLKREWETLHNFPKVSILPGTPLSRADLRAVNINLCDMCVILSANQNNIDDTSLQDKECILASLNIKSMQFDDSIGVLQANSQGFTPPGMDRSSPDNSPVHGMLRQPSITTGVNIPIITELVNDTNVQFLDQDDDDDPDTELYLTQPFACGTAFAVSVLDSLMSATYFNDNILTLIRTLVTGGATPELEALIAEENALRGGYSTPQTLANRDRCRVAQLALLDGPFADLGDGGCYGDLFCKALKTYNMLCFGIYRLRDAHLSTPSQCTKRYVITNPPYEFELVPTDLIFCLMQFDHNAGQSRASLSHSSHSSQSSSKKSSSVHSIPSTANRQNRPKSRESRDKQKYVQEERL
Method: as §1, §2, §3, §4, §5

[3] = biological target: T3, Kv2.1 (Homo sapiens, UniProt Q14721); assay: as above; type: cell-based
T3 construct: expressed in transfected cells; host or cells: HEK cells
T3 sequence (Q14721 1-858): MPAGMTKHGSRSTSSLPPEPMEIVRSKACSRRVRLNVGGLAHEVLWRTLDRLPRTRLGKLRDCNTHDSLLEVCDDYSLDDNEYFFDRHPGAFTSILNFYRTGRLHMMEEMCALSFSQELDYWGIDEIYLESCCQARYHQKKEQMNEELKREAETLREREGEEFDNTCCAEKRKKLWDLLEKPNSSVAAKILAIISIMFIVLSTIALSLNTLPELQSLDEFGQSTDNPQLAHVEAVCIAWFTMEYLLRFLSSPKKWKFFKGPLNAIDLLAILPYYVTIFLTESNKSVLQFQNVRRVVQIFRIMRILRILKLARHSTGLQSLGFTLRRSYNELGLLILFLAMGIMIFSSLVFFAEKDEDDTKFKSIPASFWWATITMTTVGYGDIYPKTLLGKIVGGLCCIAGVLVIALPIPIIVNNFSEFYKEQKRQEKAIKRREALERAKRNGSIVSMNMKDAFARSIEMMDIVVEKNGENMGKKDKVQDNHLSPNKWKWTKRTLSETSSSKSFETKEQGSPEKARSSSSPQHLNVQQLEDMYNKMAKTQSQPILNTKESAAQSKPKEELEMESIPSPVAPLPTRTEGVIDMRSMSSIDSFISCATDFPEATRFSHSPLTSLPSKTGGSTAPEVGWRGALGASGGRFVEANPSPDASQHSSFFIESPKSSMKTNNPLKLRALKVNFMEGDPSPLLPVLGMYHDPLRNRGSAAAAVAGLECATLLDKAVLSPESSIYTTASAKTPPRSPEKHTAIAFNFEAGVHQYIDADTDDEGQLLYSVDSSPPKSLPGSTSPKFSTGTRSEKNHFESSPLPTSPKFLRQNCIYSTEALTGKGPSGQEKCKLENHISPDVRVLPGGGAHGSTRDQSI
Method: as §1, §2, §3, §4, §5

[4] = system: transient inward current (voltage-gated Na+ and Ca2+ currents) in neurons; assay: Voltage-clamp of transient inward current in PAL-treated neurons; type: cell-based, rat; conditions: Cs+ in the patch pipette
Method: as §3, with “Recording pipettes with 2.5-4 MΩ resistance were filled with intracellular solution containing in mM: 10 NaCl, 135 K-gluconate, 10 HEPES, 2 MgCl2, 2 MgATP, 1 EGTA, pH 7.4.” left out

T1 sequence (P16389 whole entry): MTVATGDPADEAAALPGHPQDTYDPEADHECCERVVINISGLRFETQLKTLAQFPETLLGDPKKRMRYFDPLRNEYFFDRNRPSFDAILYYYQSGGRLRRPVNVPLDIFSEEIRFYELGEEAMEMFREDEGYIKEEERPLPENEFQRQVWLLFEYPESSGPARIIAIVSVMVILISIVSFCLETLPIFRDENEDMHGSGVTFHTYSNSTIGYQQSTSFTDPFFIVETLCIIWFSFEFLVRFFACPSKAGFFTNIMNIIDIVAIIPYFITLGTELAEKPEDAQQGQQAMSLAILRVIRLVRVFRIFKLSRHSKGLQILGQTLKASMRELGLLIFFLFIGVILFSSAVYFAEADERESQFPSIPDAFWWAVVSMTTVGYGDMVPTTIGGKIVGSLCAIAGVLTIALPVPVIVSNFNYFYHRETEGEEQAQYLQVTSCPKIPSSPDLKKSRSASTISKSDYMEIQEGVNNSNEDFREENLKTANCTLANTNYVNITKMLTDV

C=CC(=O)Nc1ccc(/N=N/c2ccc(NC(=O)C[N+](CC)(CC)CC)cc2)cc1 [AAQ]
light-sensitivity imparted on channel [1]: imparted light-sensitivity
current regulated by light [2]: ~45%
light-sensitivity imparted on channel [3]: imparted light-sensitivity
light-sensitivity of transient inward current [4]: does not become light-sensitive
